Test system: NCI-H841 complex tumor spheroid viability
Assay: Anticancer human tumor NCI-H841 cell line growth inhibition;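 further: spheroids exposed to compounds for 7 days before readout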;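 on viability, T/C: 100% = DMSO vehicle control wells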
Details: for IC50: curve of first compound; for viability, T/C: stronger effect = lower value
Description: Multicellular complex tumor spheroid response to DNA repair inhibitors in combination with DNA-damaging drugs
This study explores the anticancer activities of DNA-damaging drugs and inhibitors of DNA damage repair, both as single agents and in combinations. Complex tumor spheroids comprised of malignant cells, endothelial cells and mesenchymal stem cells served as an in vitro model for human solid tumors. This model system incorporates physiologically relevant features and patient-derived or established malignant cell lines with clinically relevant genetic alterations from many tumor types. Twenty-six patient-derived or established malignant cell lines were evaluated representing sarcoma, melanoma, small cell lung cancer (SCLC), non-small cell lung cancer (NSCLC), as well as bladder, ovarian and pancreatic cancers. The concentration ranges selected for each drug and investigational agent were based upon clinically achievable concentrations if the clinical Cmax of the agent was known.
Compounds. The drugs and compounds olaparib (NSC753686), talazoparib (NSC767125), berzosertib (NSC777718), elimusertib (NSC800525), nedisertib (NSC802822), VX-984 (NSC792969), AZD-1390 (NSC803789), temozolomide (NSC362856), topotecan (NSC609699), trabectedin (NSC813783), staurosporine (NSC755774), and gemcitabine (NSC613327) were obtained from the National Cancer Institute (NCI) Developmental Therapeutics Program Chemical Repository. The FDA-approved anticancer drug set is available from the Developmental Therapeutics Program at https://dtp.cancer.gov/organization/dscb/obtaining/available_plates.htm. […] The stock solutions were prepared in dimethyl sulfoxide (DMSO, Sigma-Aldrich, St. Louis, MO, cat. D2650) at 400-fold the tested concentration and stored at -70 degrees C. Prior to their use, the stock solutions were diluted in fresh medium and the final DMSO concentration in the assay was 0.25% (v/v). All drugs and investigational agents were tested over a range starting from a high concentration at or near the clinical Cmax and decreasing in half-log increments. If the clinical Cmax for an agent had not been determined, the highest concentration tested was 10 microM.
Cell Lines. The patient-derived cancer cell (PDC) lines: 156681-154-R-J1-PDC, 283228-195-R-J1-PDC, 287954-098-R-J1-PDC, 292921-168-R-J2-PDC, 349418-098-R-PDC, 425362-245-T-J1-PDC, 556581-035-R-J1-PDC, and BL0293-F563-PDC were received from the NCI Patient-Derived Models Repository (PDMR, https://pdmr.cancer.gov). The established cell lines HS-SY-2 (RRID:CVCL_8719), MPNST, and SYO-1 (RRID:CVCL_7146) were obtained from the Sloan Kettering Institute. The alveolar soft parts sarcoma cell line ASPS-1 (RRID:CVCL_S738) was established at the NCI and grown from internal seed stocks. The following established cell lines were purchased from the American Type Culture Collection (ATCC, Manassas, VA): G-401 (ATCC, cat. CRL-1441, RRID:CVCL_0270), SW982 (ATCC, cat. HTB-93, RRID:CVCL_1734), VA-ES-BJ (ATCC, cat. CRL-2138, RRID:CVCL_1785), NCI-H719 (ATCC, cat. CRL-5837, RRID:CVCL_1582), NCI-H196 (ATCC, cat. CRL-5823, RRID:CVCL_1509), NCI-H841 (ATCC, cat. CRL-5845, RRID:CVCL_1595), NCI-H1618 (ATCC, cat. CRL-5879, RRID:CVCL_1480), NCI-H1876 (ATCC, cat. CRL-5902, RRID:CVCL_1503), DMS 114 (ATCC, cat. CRL-2066; RRID:CVCL_1174), NCI-H211 (ATCC, cat. CRL-5824; RRID:CVCL_1529), and SW 1271 (ATCC, cat. CRL-2177, RRID:CVCL_1716). The small cell lung cancer cell line COR-L88 was purchased from Sigma-Aldrich (cat. 92031917-1VL, RRID:CVCL_1141). The non-small cell lung cancer cell lines NCI-H226 (RRID:CVCL_1544) and NCI-H322M (RRID:CVCL_1557) were established at the NCI and grown from internal seed stocks. Pooled donor human umbilical vein endothelial cells (HUVEC, Lonza, cat. CC-2519) and human mesenchymal stem cells (hMSC, Lonza, cat. PT-2501) were purchased from Lonza (Walkersville, MD).
Cell Culture. All cells were maintained in an incubator at 37 degrees C and 5% CO2 with 95% humidity. […]

[1] = second compound 0.003 µM, first compound 0.0316 µM
[2] = second compound 0.003 µM, first compound 0.1 µM
[3] = second compound 0.003 µM, first compound 0.316 µM
[4] = second compound 0.003 µM, first compound 1 µM
[5] = second compound 0.003 µM, first compound 3.16 µM
[6] = second compound 0.003 µM, first compound 10 µM
[7] = second compound 0.00949 µM, first compound 0.0316 µM
[8] = second compound 0.00949 µM, first compound 0.1 µM
[9] = second compound 0.00949 µM, first compound 0.316 µM
[10] = second compound 0.00949 µM, first compound 1 µM
[11] = second compound 0.00949 µM, first compound 3.16 µM
[12] = second compound 0.00949 µM, first compound 10 µM
[13] = second compound 0.03 µM, first compound 0.0316 µM
[14] = second compound 0.03 µM, first compound 0.1 µM
[15] = second compound 0.03 µM, first compound 0.316 µM
[16] = second compound 0.03 µM, first compound 1 µM
[17] = second compound 0.03 µM, first compound 3.16 µM
[18] = second compound 0.03 µM, first compound 10 µM
[19] = second compound 0.0949 µM, first compound 0.0316 µM
[20] = second compound 0.0949 µM, first compound 0.1 µM
[21] = second compound 0.0949 µM, first compound 0.316 µM
[22] = second compound 0.0949 µM, first compound 1 µM
[23] = second compound 0.0949 µM, first compound 3.16 µM
[24] = second compound 0.0949 µM, first compound 10 µM
[25] = second compound 0.3 µM, first compound 0.0316 µM
[26] = second compound 0.3 µM, first compound 0.1 µM
[27] = second compound 0.3 µM, first compound 0.316 µM
[28] = second compound 0.3 µM, first compound 1 µM
[29] = second compound 0.3 µM, first compound 3.16 µM
[30] = second compound 0.3 µM, first compound 10 µM

## CC1COCCN1c1cc(-c2ccnn2C)c2ccnc(-c3ccn[nH]3)c2n1 (stereo not given) + CC[C@@]1(O)C(=O)OCc2c1cc1n(c2=O)Cc2cc3c(CN(C)C)c(O)ccc3nc2-1
Second compound 0.003 µM
  IC50: < 31.6 nM
Second compound 0.00949 µM
  IC50: < 31.6 nM
Second compound 0.03 µM
  IC50: < 31.6 nM
Second compound 0.0949 µM
  IC50: < 31.6 nM
Second compound 0.3 µM
  IC50: < 31.6 nM
[1]
  viability, T/C: 8.47%
[2]
  viability, T/C: 2.38%
[3]
  viability, T/C: 1.1%
[4]
  viability, T/C: 1.26%
[5]
  viability, T/C: 1.27%
[6]
  viability, T/C: 1.76%
[7]
  viability, T/C: 1.08%
[8]
  viability, T/C: 0.71%
[9]
  viability, T/C: 0.73%
[10]
  viability, T/C: 0.86%
[11]
  viability, T/C: 1.2%
[12]
  viability, T/C: 1.56%
[13]
  viability, T/C: 0.77%
[14]
  viability, T/C: 0.57%
[15]
  viability, T/C: 0.65%
[16]
  viability, T/C: 0.82%
[17]
  viability, T/C: 1.08%
[18]
  viability, T/C: 1.32%
[19]
  viability, T/C: 0.39%
[20]
  viability, T/C: 0.37%
[21]
  viability, T/C: 0.5%
[22]
  viability, T/C: 0.56%
[23]
  viability, T/C: 0.78%
[24]
  viability, T/C: 1.13%
[25]
  viability, T/C: 0.42%
[26]
  viability, T/C: 0.41%
[27]
  viability, T/C: 0.4%
[28]
  viability, T/C: 0.5%
[29]
  viability, T/C: 0.54%
[30]
  viability, T/C: 0.72%

## COc1cc(C)[nH]c(=O)c1CN1CCc2c(Cl)cc(C(OC)C3COC3)c(Cl)c2C1=O (stereo not given) + CC[C@@]1(O)C(=O)OCc2c1cc1n(c2=O)Cc2cc3c(CN(C)C)c(O)ccc3nc2-1
Second compound 0.003 µM
  IC50: 3820 nM
Second compound 0.00949 µM
  IC50: 231 nM
Second compound 0.03 µM
  IC50: < 31.6 nM
Second compound 0.0949 µM
  IC50: < 31.6 nM
Second compound 0.3 µM
  IC50: < 31.6 nM
[1]
  viability, T/C: 86.1%
[2]
  viability, T/C: 72.1%
[3]
  viability, T/C: 62.9%
[4]
  viability, T/C: 56.6%
[5]
  viability, T/C: 49.7%
[6]
  viability, T/C: 47.5%
[7]
  viability, T/C: 82.3%
[8]
  viability, T/C: 62.6%
[9]
  viability, T/C: 43.2%
[10]
  viability, T/C: 38.2%
[11]
  viability, T/C: 32.5%
[12]
  viability, T/C: 27.9%
[13]
  viability, T/C: 3.53%
[14]
  viability, T/C: 1.86%
[15]
  viability, T/C: 4.87%
[16]
  viability, T/C: 2.31%
[17]
  viability, T/C: 2.71%
[18]
  viability, T/C: 2.37%
[19]
  viability, T/C: 1.65%
[20]
  viability, T/C: 1.4%
[21]
  viability, T/C: 1.34%
[22]
  viability, T/C: 1.12%
[23]
  viability, T/C: 0.95%
[24]
  viability, T/C: 0.94%
[25]
  viability, T/C: 1.75%
[26]
  viability, T/C: 1.53%
[27]
  viability, T/C: 1.29%
[28]
  viability, T/C: 0.89%
[29]
  viability, T/C: 1.03%
[30]
  viability, T/C: 0.98%

## Cc1cc(C)c(CNC(=O)c2cc(-c3ccc(CN4CCOCC4)cc3)cc3c2cnn3C2CCCC2)c(=O)[nH]1 + CC[C@@]1(O)C(=O)OCc2c1cc1n(c2=O)Cc2cc3c(CN(C)C)c(O)ccc3nc2-1
Second compound 0.003 µM
  IC50: 5600 nM
Second compound 0.00949 µM
  IC50: 713 nM
Second compound 0.03 µM
  IC50: < 31.6 nM
Second compound 0.0949 µM
  IC50: < 31.6 nM
Second compound 0.3 µM
  IC50: < 31.6 nM
[1]
  viability, T/C: 93.6%
[2]
  viability, T/C: 94.4%
[3]
  viability, T/C: 91.9%
[4]
  viability, T/C: 83.5%
[5]
  viability, T/C: 65.2%
[6]
  viability, T/C: 34.7%
[7]
  viability, T/C: 69.6%
[8]
  viability, T/C: 60.8%
[9]
  viability, T/C: 63.4%
[10]
  viability, T/C: 44.7%
[11]
  viability, T/C: 21.7%
[12]
  viability, T/C: 9.9%
[13]
  viability, T/C: 2.88%
[14]
  viability, T/C: 2.59%
[15]
  viability, T/C: 2.6%
[16]
  viability, T/C: 1.45%
[17]
  viability, T/C: 1.14%
[18]
  viability, T/C: 1.49%
[19]
  viability, T/C: 1.83%
[20]
  viability, T/C: 1.47%
[21]
  viability, T/C: 1.42%
[22]
  viability, T/C: 1.4%
[23]
  viability, T/C: 1.41%
[24]
  viability, T/C: 1.58%
[25]
  viability, T/C: 7.2%
[26]
  viability, T/C: 1.62%
[27]
  viability, T/C: 1.88%
[28]
  viability, T/C: 1.53%
[29]
  viability, T/C: 1.17%
[30]
  viability, T/C: 4.17%

## [2H]c1nc(C)nc([2H])c1-c1cc(NC[C@@H](C)c2cccc3c(C(=O)NC)ccnc23)ncn1 + CC[C@@]1(O)C(=O)OCc2c1cc1n(c2=O)Cc2cc3c(CN(C)C)c(O)ccc3nc2-1
Second compound 0.003 µM
  IC50: > 10000 nM
Second compound 0.00949 µM
  IC50: > 10000 nM
Second compound 0.03 µM
  IC50: < 31.6 nM
Second compound 0.0949 µM
  IC50: < 31.6 nM
Second compound 0.3 µM
  IC50: < 31.6 nM
[1]
  viability, T/C: 97.6%
[2]
  viability, T/C: 95.8%
[3]
  viability, T/C: 96.1%
[4]
  viability, T/C: 96.4%
[5]
  viability, T/C: 93.4%
[6]
  viability, T/C: 93%
[7]
  viability, T/C: 83.9%
[8]
  viability, T/C: 76.5%
[9]
  viability, T/C: 74.4%
[10]
  viability, T/C: 75.2%
[11]
  viability, T/C: 68.7%
[12]
  viability, T/C: 62.6%
[13]
  viability, T/C: 2.66%
[14]
  viability, T/C: 2.14%
[15]
  viability, T/C: 2.36%
[16]
  viability, T/C: 1.49%
[17]
  viability, T/C: 1.43%
[18]
  viability, T/C: 1.47%
[19]
  viability, T/C: 1.75%
[20]
  viability, T/C: 1.82%
[21]
  viability, T/C: 1.89%
[22]
  viability, T/C: 1.74%
[23]
  viability, T/C: 1.58%
[24]
  viability, T/C: 1.67%
[25]
  viability, T/C: 1.97%
[26]
  viability, T/C: 1.94%
[27]
  viability, T/C: 1.59%
[28]
  viability, T/C: 1.73%
[29]
  viability, T/C: 1.5%
[30]
  viability, T/C: 1.17%
